The target in series [1] is T1, Soli C1 (Solenopsis invicta, UniProt Q7SIG2).
T1 construct: Fourth instar larvae were extracted in a 1:10 (weight/volume) ratio of 20 mM Tris-HCl pH 7.4; from tissue; host or cells: whole Solenopsis invicta 4th instar larvae (buffer extract, acetone precipitation, Q Sepharose peak III, Mono Q, Superdex 75)
Type of series: biochemical.

Series [2] has as its system Soli C2. Briefly: Inhibition of amidolytic activity by synthetic inhibitors. Type of series: biochemical, Solenopsis invicta.
The test system of series [3] is Soli E1. Described as above. It counts as biochemical, Solenopsis invicta.
Series [4] concerns Soli E2. The description is as above. It counts as biochemical, Solenopsis invicta.
The target of series [5] is T1, Soli C1. Briefly: Inhibition of amidolytic activity by naturally occurring protease inhibitors. Conditions: 10 minutes incubation at 25° C. in 50 mM Tris-HCl, 100 mM NaCl, pH 7.4. Type of series: biochemical. The protocol:
(§1) Enzyme Assay—Generally, the amidolytic activities of each proteinase were measured with the substrates MeOSuc-Ala-Ala-Pro-Val-pNA (SEQ ID NO:8) and N-Suc-Ala-Ala-Pro-Phe-pNA (SEQ ID NO:7) in 0.05 M Tris-HCl and 100 mM NaCl pH 7.4 (assay buffer). Release of the pNA group was assayed by monitoring the optical density of the test solution at […]. Enzyme inhibition assays by protein inhibitors were conducted in the same assay buffer using an inhibitor concentration ranging from 0.02-50 nM with a 10 minute preincubation time and with the final enzyme concentration being 1.0 nM. All kinetic studies with substrates and inhibitors were performed at the optimum pH of the individual proteinases, utilizing the following buffers: 150 mM NaCl, 50 mM Tris-HCl pH 8.0 (E1); 150 mM NaCl, 50 mM CHES pH 9.5 (E2 and C2); and 150 mM NaCl, 50 mM CAPS pH 10.0 (C1).

For series [6], the system named is Soli E1. The series is described as above. Conditions: 10 minutes incubation at 25° C. in 50 mM Tris-HCl, 100 mM NaCl, pH 7.4. It counts as biochemical, Solenopsis invicta. The protocol:
as §1

Series [7] has as its system Soli C2. The description is as above. It counts as biochemical, Solenopsis invicta. The conditions noted are these: 10 minutes incubation at 25° C. in 50 mM Tris-HCl, 100 mM NaCl, pH 7.4. The protocol:
as §1

The test system of series [8] is Soli E2. The series is described as above. It counts as biochemical, Solenopsis invicta. Conditions: 10 minutes incubation at 25° C. in 50 mM Tris-HCl, 100 mM NaCl, pH 7.4. How it is done: as §1
Series [9] is described as follows: pH optimum of the purified proteinases. The conditions noted are these: Vmax of substrate hydrolysis, room temperature, pH range 3.0 to 12.0. It counts as biochemical, Solenopsis invicta. The protocol: (§2) pH analysis—The determination of pH optimum and stability for each enzyme was performed using a Universal Phosphate Buffer system, which is a buffer made from boric acid and phosphoric acid titrated with sodium hydroxide such that the ionic strength is the same at any pH. Briefly, equal volumes of a solution of 80 mM boric acid and a solution of 80 mM phosphoric acid were combined, and 200 mM sodium hydroxide was added to bring the mixture to the desired pH.

A short description of series [10]: Isoelectrofocusing (IEF) of the purified proteinases. Type of series: physicochemical, Solenopsis invicta. The conditions noted are these: IEF gels pH 3-10, Serva Test Mix 9 standards. The protocol:
IEF—Isoelectrofocusing of the purified proteinases was performed on precast isoelectric focusing gels (pH 3-10) obtained under the trade designation […] PRECOTES (Cresent Chemical Co., Inc., Hauppauge, N.Y.). Sample preparations and isoelectrofocusing were carried out following instructions provided by Pharmacia and using the Pharmacia Flatbed Electrophoresis Unit.
IEF—Based on Serva Test Mix 9 IEF standards (Cresent Chemical Co., Inc.), the proteinases migrated to the following pI's; Soli E1, 10.0; Soli E2 (3 isoforms), 6.9, 8.3, 8.5; Soli C1, 4.7; and Soli C2, 4.2.

The format of series [11] is physicochemical, Solenopsis invicta. How it is done: as §2

Values joined by “and” are separate entries in the source; they are usually repeats but may differ in a detail not shown here. Equal entries are not always repeated. Where a SMILES comes first, the peptide text is derived from it. [ ]: non-standard residue; d: D form. The star is where a group is joined. Sta = CC(C)C[C@H](N)[C@@H](O)CC(=O)O; Isovaleryl = CC(C)CC(=O)*

In general, IC50 refers to the midpoint of a concentration-inhibition curve. High values mean a need for much substance, low ones inhibition by little substance.

T1 sequence (Q7SIG2 whole entry): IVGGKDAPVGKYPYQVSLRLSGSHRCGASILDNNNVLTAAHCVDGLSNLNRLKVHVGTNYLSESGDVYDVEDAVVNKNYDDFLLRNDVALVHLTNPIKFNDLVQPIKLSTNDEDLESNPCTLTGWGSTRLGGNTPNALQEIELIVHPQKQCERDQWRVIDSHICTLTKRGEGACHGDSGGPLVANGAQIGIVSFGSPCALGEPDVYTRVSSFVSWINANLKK

On to `CC(C)C[C@H](NC(=O)[C@H]1O[C@@H]1C(=O)O)C(=O)NCCCCN=C(N)N` (relative stereo) [E-64, trans-epoxysuccinyl-L-leucylamido-(4-guanidino)butane], for which the “Inhibition of Soli C1 by class-specific proteinase inhibitors (in words)” value (from here on “Inhibition of Soli C1”) in series [1] is on record as “not”. The “Inhibition of Soli C2 by class-specific proteinase inhibitors (in words)” value (“Inhibition of Soli C2” below) in series [2] is “not”. For the same compound, the “Inhibition of Soli E1 by class-specific proteinase inhibitors (in words)” value (shortened to “Inhibition of Soli E1”) in series [3] is “not”.

For `O=c1oc(Cl)c(Cl)c2ccccc12` [DCIC, 3,4-dichloroisocoumarin], the “Inhibition of Soli C1” value in series [1] is given as “not Soli C1 or Soli C2, except after long incubation periods”. Further, in series [4], the “Inhibition of Soli E2 by class-specific proteinase inhibitors (in words)” value is “inhibited”. For the same compound, the “Inhibition of Soli C2” value in [2] is “not Soli C1 or Soli C2, except after long incubation periods”. Also, the “Inhibition of Soli E1” value in [3] is on record as “inhibited”.

Regarding `O=C(O)CN(CCN(CC(=O)O)CC(=O)O)CC(=O)O` [EDTA, ethylenediaminetetraacetate·2H2O], in [1], the “Inhibition of Soli C1” value is listed as “not”. Further, the “Inhibition of Soli C2” value in series [2] is given as “not”. Further, the “Inhibition of Soli E1” value in [3] is “not”.

`CC(C)CC(=O)N[C@H](C(=O)N[C@H](C(=O)N[C@@H](CC(C)C)[C@@H](O)CC(=O)N[C@@H](C)C(=O)N[C@@H](CC(C)C)[C@@H](O)CC(=O)O)C(C)C)C(C)C` [Pepstatin] (Isovaleryl-VV[Sta]A[Sta]-OH): in series [1], the “Inhibition of Soli C1” value is recorded as “not”. Also, the “Inhibition of Soli C2” value in [2] is “not”. Besides, the “Inhibition of Soli E1” value in series [3] is “not”.

With “Canadian Goose OM Domain III: Domain III of Canadian goose ovomucoid”, the IC50 in series [5] was more than 50 nM; in series [6] it was 1.51 nM; in [7], more than 50 nM; in series [8], 27.3 nM.

Take “Domestic Goose OM Domain III: Domain III of domestic goose ovomucoid”: the IC50 in series [5] is more than 50 nM; in [6] it was more than 50 nM; in series [7], more than 50 nM; in [8], 5.58 nM.

In the case of “Soli C1: chymotrypsin-like serine proteinase, about 25 kDa, from S. invicta 4th instar larvae (IVGGDAPVGKYPYQVSLRLSG)”, the pH optimum in series [9] is listed as 9.0-10.5. The pI in series [10] was determined as 4.7. The “Stability of enzyme activity” value in [11] is “stable for several days”.

“Soli C2: chymotrypsin-like serine proteinase, about 28 kDa, from S. invicta 4th instar larvae (IVGGEPAPGGAYPFIVSLQV)” showed a pH optimum in [9] of 9.0. Moreover, in [10], the pI is listed as 4.2. In series [11], the “Stability of enzyme activity” value is “lost their activities fairly quickly over all pHs” and the “pH at which most stable” value is 8.0.

In [9], “Soli E1: elastase-like serine proteinase, about 23 kDa, from S. invicta 4th instar larvae (IVGGQPATPGEFPHQGSLRV)” returned a pH optimum of 8.0. The compound further returned a pI in series [10] of 10.0. In series [11], the “Stability of enzyme activity” value is on record as “lost their activities fairly quickly over all pHs” and the “pH at which most stable” value stood at 7.0.

Turning to “Soli E2: elastase-like serine proteinase, about 24 kDa, from S. invicta 4th instar larvae (IVGGQDAAPGEFPHQGSLRLRGSHI)”, the pH optimum in series [9] is 8.5-10. The pI in series [10] is 6.9 and 8.3 and 8.5. For the same compound, in [11], the “Stability of enzyme activity” value is recorded as “lost their activities fairly quickly over all pHs” and the “pH at which most stable” value came out at 8.5.

In the case of α1-PI: α-1-Proteinase Inhibitor, the 50% inhibitory concentration (IC50) is 0.338 nM in series [5], 1.2 nM in series [6], 0.271 nM in series [7] and 0.604 nM in series [8].

These data come from patent publication US6399759B1, “Ant proteases and methods of inhibition” (University of Georgia Research Foundation, Inc., priority 1999, dated 2002).
